Measured values: PubChem BioAssay (NCI)
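Each compound was tested at five concentrations against cells in 96-well plates for 48 hours. TGI: total growth inhibition.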

Experiments:
Experiment in all cases: growth of human tumour cells (NCI), 48 h
MDA-MB-231 breast = test system: MDA-MB-231 breast
PC-3 prostate = test system: PC-3 prostate
T-47D breast = test system: T-47D breast
MOLT-4 leukemia = test system: MOLT-4 leukemia
RPMI-8226 leukemia = test system: RPMI-8226 leukemia
HT29 colon = test system: HT29 colon
A549 NSCLC = test system: A549 NSCLC
HOP-62 NSCLC = test system: HOP-62 NSCLC
OVCAR-3 ovarian = test system: OVCAR-3 ovarian
SN12C renal = test system: SN12C renal
SNB-75 CNS = test system: SNB-75 CNS
SF-268 CNS = test system: SF-268 CNS
CAKI-1 renal = test system: CAKI-1 renal
SK-MEL-5 melanoma = test system: SK-MEL-5 melanoma
TK-10 renal = test system: TK-10 renal
HCT-116 colon = test system: HCT-116 colon
BT-549 breast = test system: BT-549 breast
HOP-92 NSCLC = test system: HOP-92 NSCLC
NCI/ADR-RES ovarian = test system: NCI/ADR-RES ovarian
IGROV1 ovarian = test system: IGROV1 ovarian
DU-145 prostate = test system: DU-145 prostate
SK-MEL-28 melanoma = test system: SK-MEL-28 melanoma
NCI-H522 lung = test system: NCI-H522 lung
SW-620 colon = test system: SW-620 colon
SF-295 CNS = test system: SF-295 CNS
SK-MEL-2 melanoma = test system: SK-MEL-2 melanoma
HS 578T breast = test system: HS 578T breast
786-0 renal = test system: 786-0 renal
M14 melanoma = test system: M14 melanoma
UACC-257 melanoma = test system: UACC-257 melanoma
MDA-MB-435 = test system: MDA-MB-435
OVCAR-5 ovarian = test system: OVCAR-5 ovarian
NCI-H460 lung = test system: NCI-H460 lung
ACHN renal = test system: ACHN renal
LOX IMVI melanoma = test system: LOX IMVI melanoma
U251 CNS = test system: U251 CNS
SNB-19 CNS = test system: SNB-19 CNS
SF-539 CNS = test system: SF-539 CNS
OVCAR-4 ovarian = test system: OVCAR-4 ovarian
UO-31 renal = test system: UO-31 renal
UACC-62 melanoma = test system: UACC-62 melanoma
MDA-N = test system: MDA-N
NCI-H23 lung = test system: NCI-H23 lung
OVCAR-8 ovarian = test system: OVCAR-8 ovarian
SR leukemia = test system: SR leukemia
HCT-15 colon = test system: HCT-15 colon
EKVX NSCLC = test system: EKVX NSCLC
MCF7 breast = test system: MCF7 breast
HCC-2998 colon = test system: HCC-2998 colon
HL-60(TB) leukemia = test system: HL-60(TB) leukemia
CCRF-CEM leukemia = test system: CCRF-CEM leukemia
KM12 colon = test system: KM12 colon
COLO 205 colon = test system: COLO 205 colon
K-562 leukemia = test system: K-562 leukemia
NCI-H226 lung = test system: NCI-H226 lung
RXF 393 renal = test system: RXF 393 renal
MALME-3M melanoma = test system: MALME-3M melanoma
SK-OV-3 ovarian = test system: SK-OV-3 ovarian
A498 renal = test system: A498 renal

Compound `C#C/C=C\CCCC/C=C\C#CC#CCCCC#CC#C[C@H](COS(=O)(=O)O)OS(=O)(=O)O` has a TGI (MDA-MB-231 breast) of over 100 µM, a TGI (PC-3 prostate) of over 100 µM and a TGI (T-47D breast) of over 100 µM. The TGI (MOLT-4 leukemia) was over 100 µM, the TGI (RPMI-8226 leukemia) was over 100 µM and the TGI (HT29 colon) was over 100 µM. For the same compound, the TGI (A549 NSCLC) was over 100 µM, the TGI (HOP-62 NSCLC) was over 100 µM and the TGI (OVCAR-3 ovarian) was over 100 µM. The TGI (SN12C renal) was over 100 µM, the TGI (SNB-75 CNS) was over 100 µM and the TGI (SF-268 CNS) was over 100 µM. For the same compound, the TGI (CAKI-1 renal) was over 100 µM, the TGI (SK-MEL-5 melanoma) was over 100 µM and the TGI (TK-10 renal) was over 100 µM. For the same compound, the TGI (HCT-116 colon) was over 100 µM, the TGI (BT-549 breast) was over 100 µM and the TGI (HOP-92 NSCLC) was over 100 µM. The TGI (NCI/ADR-RES ovarian) was over 100 µM, the TGI (IGROV1 ovarian) was over 100 µM and the TGI (DU-145 prostate) was over 100 µM. For the same compound, the TGI (SK-MEL-28 melanoma) was over 100 µM, the TGI (NCI-H522 lung) was over 100 µM and the TGI (SW-620 colon) was over 100 µM. It also gave a TGI (SF-295 CNS) of over 100 µM, a TGI (SK-MEL-2 melanoma) of over 100 µM and a TGI (HS 578T breast) of over 100 µM. For the same compound, the TGI (786-0 renal) was over 100 µM, the TGI (M14 melanoma) was over 100 µM and the TGI (UACC-257 melanoma) was over 100 µM. For the same compound, the TGI (MDA-MB-435) was over 100 µM, the TGI (OVCAR-5 ovarian) was over 100 µM and the TGI (NCI-H460 lung) was over 100 µM. For the same compound, the TGI (ACHN renal) was over 100 µM, the TGI (LOX IMVI melanoma) was over 100 µM and the TGI (U251 CNS) was over 100 µM. It also gave a TGI (SNB-19 CNS) of over 100 µM, a TGI (SF-539 CNS) of over 100 µM and a TGI (OVCAR-4 ovarian) of over 100 µM. For the same compound, the TGI (UO-31 renal) was over 100 µM, the TGI (UACC-62 melanoma) was over 100 µM and the TGI (MDA-N) was over 100 µM. It also gave a TGI (NCI-H23 lung) of over 100 µM, a TGI (OVCAR-8 ovarian) of over 100 µM and a TGI (SR leukemia) of over 100 µM. The TGI (HCT-15 colon) was over 100 µM, the TGI (EKVX NSCLC) was over 100 µM and the TGI (MCF7 breast) was over 100 µM. The TGI (HCC-2998 colon) was over 100 µM, the TGI (HL-60(TB) leukemia) was over 100 µM and the TGI (CCRF-CEM leukemia) was over 100 µM. It also gave a TGI (KM12 colon) of over 100 µM and a TGI (COLO 205 colon) of over 100 µM.
Work on `O=C1CC(c2ccccc2)C2(C(=O)NC(=S)NC2=O)C(c2ccccc2)C1` (configuration not stated) yielded a TGI (MDA-MB-231 breast) of over 75 µM, a TGI (PC-3 prostate) of over 75 µM and a TGI (T-47D breast) of over 75 µM. For the same compound, the TGI (MOLT-4 leukemia) was over 75 µM, the TGI (RPMI-8226 leukemia) was 73.3 µM and the TGI (HT29 colon) was over 75 µM. It also gave a TGI (HOP-62 NSCLC) of over 75 µM, a TGI (OVCAR-3 ovarian) of over 75 µM and a TGI (SN12C renal) of over 75 µM. For the same compound, the TGI (SNB-75 CNS) was over 75 µM, the TGI (SF-268 CNS) was over 75 µM and the TGI (CAKI-1 renal) was over 75 µM. For the same compound, the TGI (SK-MEL-5 melanoma) was over 75 µM, the TGI (K-562 leukemia) was over 75 µM and the TGI (TK-10 renal) was over 75 µM. It also gave a TGI (HCT-116 colon) of over 75 µM, a TGI (BT-549 breast) of over 75 µM and a TGI (HOP-92 NSCLC) of over 75 µM. It also gave a TGI (NCI/ADR-RES ovarian) of over 75 µM, a TGI (IGROV1 ovarian) of over 75 µM and a TGI (DU-145 prostate) of over 75 µM. The TGI (SK-MEL-28 melanoma) was over 75 µM, the TGI (NCI-H522 lung) was over 75 µM and the TGI (SW-620 colon) was over 75 µM. For the same compound, the TGI (SF-295 CNS) was over 75 µM, the TGI (SK-MEL-2 melanoma) was over 75 µM and the TGI (786-0 renal) was over 75 µM. For the same compound, the TGI (M14 melanoma) was over 75 µM, the TGI (UACC-257 melanoma) was over 75 µM and the TGI (MDA-MB-435) was over 75 µM. It also gave a TGI (OVCAR-5 ovarian) of over 75 µM, a TGI (NCI-H460 lung) of over 75 µM and a TGI (NCI-H226 lung) of over 75 µM. The TGI (ACHN renal) was over 75 µM, the TGI (LOX IMVI melanoma) was over 75 µM and the TGI (U251 CNS) was over 75 µM. The TGI (SNB-19 CNS) was over 75 µM, the TGI (SF-539 CNS) was over 75 µM and the TGI (OVCAR-4 ovarian) was over 75 µM. It also gave a TGI (RXF 393 renal) of over 75 µM, a TGI (UO-31 renal) of over 75 µM and a TGI (UACC-62 melanoma) of over 75 µM. The TGI (MDA-N) was over 75 µM, the TGI (NCI-H23 lung) was over 75 µM and the TGI (OVCAR-8 ovarian) was over 75 µM. It also gave a TGI (SR leukemia) of over 75 µM, a TGI (HCT-15 colon) of over 75 µM and a TGI (MALME-3M melanoma) of over 75 µM. The TGI (EKVX NSCLC) was over 75 µM, the TGI (MCF7 breast) was over 75 µM and the TGI (HCC-2998 colon) was over 75 µM. The TGI (HL-60(TB) leukemia) was over 75 µM, the TGI (CCRF-CEM leukemia) was over 75 µM and the TGI (KM12 colon) was over 75 µM. It also gave a TGI (COLO 205 colon) of over 75 µM.
With `O=C1c2ccccc2C(=O)c2cc(N=Nc3c(O)ccc4ccccc34)ccc21` the TGI (MDA-MB-231 breast) was over 100 µM, the TGI (SK-OV-3 ovarian) was over 100 µM and the TGI (PC-3 prostate) was over 100 µM. It also gave a TGI (T-47D breast) of over 100 µM, a TGI (MOLT-4 leukemia) of over 100 µM and a TGI (RPMI-8226 leukemia) of over 100 µM. It also gave a TGI (HT29 colon) of over 100 µM, a TGI (A549 NSCLC) of over 100 µM and a TGI (HOP-62 NSCLC) of over 100 µM. The TGI (OVCAR-3 ovarian) was over 100 µM, the TGI (SN12C renal) was over 100 µM and the TGI (SNB-75 CNS) was over 100 µM. The TGI (SF-268 CNS) was over 100 µM, the TGI (CAKI-1 renal) was over 100 µM and the TGI (SK-MEL-5 melanoma) was over 100 µM. It also gave a TGI (K-562 leukemia) of over 100 µM, a TGI (TK-10 renal) of over 100 µM and a TGI (HCT-116 colon) of over 100 µM. The TGI (BT-549 breast) was over 100 µM, the TGI (HOP-92 NSCLC) was over 100 µM and the TGI (NCI/ADR-RES ovarian) was over 100 µM. The TGI (IGROV1 ovarian) was over 100 µM, the TGI (DU-145 prostate) was over 100 µM and the TGI (SK-MEL-28 melanoma) was over 100 µM. The TGI (NCI-H522 lung) was over 100 µM, the TGI (A498 renal) was over 100 µM and the TGI (SW-620 colon) was over 100 µM. It also gave a TGI (SF-295 CNS) of over 100 µM, a TGI (SK-MEL-2 melanoma) of over 100 µM and a TGI (HS 578T breast) of over 100 µM. For the same compound, the TGI (786-0 renal) was over 100 µM, the TGI (M14 melanoma) was over 100 µM and the TGI (UACC-257 melanoma) was over 100 µM. For the same compound, the TGI (MDA-MB-435) was over 100 µM, the TGI (OVCAR-5 ovarian) was over 100 µM and the TGI (NCI-H226 lung) was over 100 µM. The TGI (ACHN renal) was over 100 µM, the TGI (LOX IMVI melanoma) was over 100 µM and the TGI (U251 CNS) was over 100 µM. For the same compound, the TGI (SNB-19 CNS) was over 100 µM, the TGI (OVCAR-4 ovarian) was over 100 µM and the TGI (RXF 393 renal) was over 100 µM. The TGI (UO-31 renal) was over 100 µM, the TGI (UACC-62 melanoma) was over 100 µM and the TGI (MDA-N) was over 100 µM. For the same compound, the TGI (NCI-H23 lung) was over 100 µM, the TGI (OVCAR-8 ovarian) was over 100 µM and the TGI (SR leukemia) was over 100 µM. It also gave a TGI (HCT-15 colon) of over 100 µM, a TGI (MALME-3M melanoma) of over 100 µM and a TGI (EKVX NSCLC) of over 100 µM. It also gave a TGI (CCRF-CEM leukemia) of over 100 µM, a TGI (KM12 colon) of over 100 µM and a TGI (COLO 205 colon) of over 100 µM.
